Assay results from patent publication US9567345B2, “Pharmaceutically active pyrazolo-triazine derivatives” (LEAD DISCOVERY CENTER GMBH, priority 2012, dated 2017).
Where two headings read alike, the source gives them in different places.

Key:
Type in all cases: biochemical
CDK7/CycH/Mat1 = CDK7/CycH/Mat1 (Homo sapiens, UniProt P50613); assay: CDK7 Enzymatic Activity Assay (Lance Kinase Activity Assay, FRET)
Summary of the method: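 TR-FRET (LANCE) kinase assay: CDK7/CycH/Mat1 phosphorylates Ulight-MBP substrate for 1 h at room temperature in pH 7.5 HEPES buffer; detection 1 h with Eu-labelled anti-phospho antibody plus EDTA.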

CDK2/CycA = molecular target: T1, CDK2/CycA (Homo sapiens, UniProt P24941); assay: CDK2 Enzymatic Activity Assay (Lance Kinase Activity Assay, FRET); conditions: for IC50: Table 5B, class symbols per IC50 [nM] ranges of b581, read-out: CDK2: Selectivity of CDK7 inhibition over CDK2 inhibition
T1 construct: purchased Proqinase
Summary of the method: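 Compounds in an 8-step, 1:3 dilution series were incubated 1 h at room temperature with CDK2/CycA, ULight-MBP substrate and ATP in pH 7.5 HEPES buffer.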

CDK9/Cyclin T1 = CDK9/Cyclin T1 (Homo sapiens, UniProt P50750); assay: CDK9 Enzymatic Activity Assay (Lance Kinase Activity Assay, FRET); conditions: for IC50: Table 5B, class symbols per IC50 [nM] ranges of b581, read-out: CDK9: Selectivity of CDK7 inhibition over CDK9 inhibition
Summary of the method: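 CDK9/cyclin T1 phosphorylation of a ULight-MBP peptide was run for 1 h at room temperature in pH 7.5 HEPES buffer with MgCl2, EGTA, DTT and Tween-20. It was followed by 1 h with Eu-anti-phospho-MBP antibody (4 nM) in EDTA detection buffer. TR-FRET loss gave IC50 from 8-point, 1:3 sigmoidal dose-response curves.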

[1] = CDK7/CycH/Mat1, 25 μM ATP final, class ranges, read-out: CDK7: IC50 [nM] for CDK7 inhibition

CDK9/Cyclin T1, sequence (P50750 whole entry): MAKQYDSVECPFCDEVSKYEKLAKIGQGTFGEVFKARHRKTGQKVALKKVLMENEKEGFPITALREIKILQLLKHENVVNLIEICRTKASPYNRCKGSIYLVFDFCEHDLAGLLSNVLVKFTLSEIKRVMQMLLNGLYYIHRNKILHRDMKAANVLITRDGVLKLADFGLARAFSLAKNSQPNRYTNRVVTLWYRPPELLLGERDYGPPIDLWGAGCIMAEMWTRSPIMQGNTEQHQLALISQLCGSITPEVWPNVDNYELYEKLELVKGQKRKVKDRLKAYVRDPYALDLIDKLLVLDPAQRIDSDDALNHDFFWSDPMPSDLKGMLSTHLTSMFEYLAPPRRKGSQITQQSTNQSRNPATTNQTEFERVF
CDK9/Cyclin T1, sequence (O60563 whole entry partner): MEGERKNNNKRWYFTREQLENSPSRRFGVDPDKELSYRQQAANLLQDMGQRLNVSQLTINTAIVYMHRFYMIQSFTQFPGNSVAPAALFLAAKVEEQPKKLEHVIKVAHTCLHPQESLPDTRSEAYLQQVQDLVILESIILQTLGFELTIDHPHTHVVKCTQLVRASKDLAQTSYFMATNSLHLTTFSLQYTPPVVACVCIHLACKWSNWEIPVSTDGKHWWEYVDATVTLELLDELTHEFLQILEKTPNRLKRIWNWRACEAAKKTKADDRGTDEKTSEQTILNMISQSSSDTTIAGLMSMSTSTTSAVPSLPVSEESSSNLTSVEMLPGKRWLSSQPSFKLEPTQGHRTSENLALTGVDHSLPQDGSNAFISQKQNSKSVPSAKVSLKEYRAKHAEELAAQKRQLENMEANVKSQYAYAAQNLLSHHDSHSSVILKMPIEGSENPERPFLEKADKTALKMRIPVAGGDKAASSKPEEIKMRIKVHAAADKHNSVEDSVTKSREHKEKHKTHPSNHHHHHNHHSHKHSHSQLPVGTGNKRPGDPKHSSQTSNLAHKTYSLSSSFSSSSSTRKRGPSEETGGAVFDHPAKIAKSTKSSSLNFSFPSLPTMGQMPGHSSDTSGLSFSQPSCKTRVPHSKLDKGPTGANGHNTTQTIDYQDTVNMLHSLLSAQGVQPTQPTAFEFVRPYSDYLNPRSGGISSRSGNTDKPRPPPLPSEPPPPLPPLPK
CDK7/CycH/Mat1, sequence (P50613 whole entry): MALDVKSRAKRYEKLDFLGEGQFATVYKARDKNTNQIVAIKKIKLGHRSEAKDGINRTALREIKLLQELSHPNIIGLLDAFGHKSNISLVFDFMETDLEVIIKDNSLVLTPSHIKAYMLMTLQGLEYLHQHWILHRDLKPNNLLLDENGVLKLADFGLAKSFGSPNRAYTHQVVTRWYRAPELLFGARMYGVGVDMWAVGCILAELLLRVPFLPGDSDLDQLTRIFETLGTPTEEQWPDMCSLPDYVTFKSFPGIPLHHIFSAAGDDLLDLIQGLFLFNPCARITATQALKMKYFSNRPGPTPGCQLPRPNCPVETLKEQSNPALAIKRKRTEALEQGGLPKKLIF

SMILES	IC50 (CDK7/CycH/Mat1; [1]) [nM]	IC50 (CDK7/CycH/Mat1; Table 6, read-out: IC50 CDK7) [nM]	Selectivity CDK7 over CDK2 (CDK2/CycA; Table 6) [fold]	IC50 (CDK9/Cyclin T1) [nM]	Selectivity CDK7 over CDK9 (CDK9/Cyclin T1; Table 6) [fold]	IC50 (CDK2/CycA) [nM]
CC(C)c1cnn2c(NCc3cccc4c3OCCCO4)nc(O[C@@H]3CCCNC3)nc12 [(VII-116), (R)-N-((3,4-dihydro-2H-benzo[b][1,4]dioxepin-6-yl)methyl)-8-isopropyl-2-(piperidin-3-yloxy)pyrazolo[1,5-a][1,3,5]triazin-4-amine]	10 to 25	–	–	500 to 2500	–	50 to 500
CC(C)c1cnn2c(NCc3ccccc3-n3cccn3)nc(OC3C=CCNC3)nc12 (centres unmarked) [(VII-120), N-(2-(1H-pyrazol-1-yl)benzyl)-8-isopropyl-2-((1,2,3,6-tetrahydropyridin-3-yl)oxy)pyrazolo[1,5-a][1,3,5]triazin-4-amine]	5 to 10	–	–	> 2500	–	50 to 500
CC(C)c1cnn2c(NCc3ccccc3C3CC3)nc(O[C@@H]3CCCNC3)nc12 (stereo in doubt) [(VII-143), N-(2-cyclopropylbenzyl)-8-isopropyl-2-(piperidin-3-yloxy)pyrazolo[1,5-a][1,3,5]triazin-4-amine]	10 to 25	–	–	500 to 2500	–	500 to 2500
CC(C)c1cnn2c(NCc3ccccc3-n3cccn3)nc(C(=O)NCCCN)nc12 [(XII-10), 4-((2-(1H-pyrazol-1-yl)benzyl)amino)-N-(3-aminopropyl)-8-isopropylpyrazolo[1,5-a][1,3,5]triazine-2-carboxamide]	> 25	–	–	> 2500	–	> 2500
CCCNC(=O)Nc1ccccc1CNc1nc(O[C@@H]2CCCNC2)nc2c(C(C)C)cnn12 [(VII-110), (R)-1-(2-(((8-isopropyl-2-(piperidin-3-yloxy)pyrazolo[1,5-a][1,3,5]triazin-4-yl)amino)methyl)phenyl)-3-propylurea]	< 5	–	–	> 2500	–	> 2500
CC(C)c1cnn2c(NCc3ccccc3OC(F)F)nc(OC3CCN(C)CC3)nc12 [(VII-72), N-(2-(difluoromethoxy)benzyl)-8-isopropyl-2-((1-methylpiperidin-4-yl)oxy)pyrazolo[1,5-a][1,3,5]triazin-4-amine]	< 5	–	–	50 to 500	–	50 to 500
CC(C)c1cnn2c(NCc3ccccc3-n3cccn3)nc(NCC3CCNC3)nc12 (centres unmarked) [(VIII-052), N4-(2-(1H-pyrazol-1-yl)benzyl)-8-isopropyl-N2-(pyrrolidin-3-ylmethyl)pyrazolo[1,5-a][1,3,5]triazine-2,4-diamine]	> 25	–	–	> 2500	–	> 2500

Further lines, results first:

IC50 (CDK7/CycH/Mat1; [1]) [nM]	IC50 (CDK7/CycH/Mat1; Table 6, read-out: IC50 CDK7) [nM]	Selectivity CDK7 over CDK2 (CDK2/CycA; Table 6) [fold]	IC50 (CDK9/Cyclin T1) [nM]	Selectivity CDK7 over CDK9 (CDK9/Cyclin T1; Table 6) [fold]	IC50 (CDK2/CycA) [nM]	SMILES
< 5	< 5	3926	> 2500	9140	–	CC(C)c1cnn2c(NCc3ccccc3-n3ccnc3)nc(OC3CCN(C)CC3)nc12 [(VII-59), N-(2-(1H-imidazol-1-yl)benzyl)-8-isopropyl-2-((1-methylpiperidin-4-yl)oxy)pyrazolo[1,5-a][1,3,5]triazin-4-amine]
< 5	–	–	50 to 500	–	50 to 500	CC(C)c1cnn2c(NCc3ccccc3-n3ccnc3)nc(O[C@@H]3CCNC3)nc12 [(VII-27), (R)-N-(2-(1H-imidazol-1-yl)benzyl)-8-isopropyl-2-(pyrrolidin-3-yloxy)pyrazolo[1,5-a][1,3,5]triazin-4-amine]
< 5	–	–	> 2500	–	50 to 500	CC(C)c1cnn2c(NCc3ccccc3S(=O)(=O)N3CCCC3)nc(O[C@@H]3CCCNC3)nc12 [(VII-106), (R)-8-isopropyl-2-(piperidin-3-yloxy)-N-(2-(pyrrolidin-1-ylsulfonyl)benzyl)pyrazolo[1,5-a][1,3,5]triazin-4-amine]
< 5	–	–	500 to 2500	–	> 2500	CC(C)c1cnn2c(NCc3cccc4nonc34)nc(N3CCC4(CCCN4)CC3)nc12 [(VIII-36), N-(benzo[c][1,2,5]oxadiazol-4-ylmethyl)-8-isopropyl-2-(1,8-diazaspiro[4.5]decan-8-yl)pyrazolo[1,5-a][1,3,5]triazin-4-amine]
< 5	–	–	> 2500	–	50 to 500	CNS(=O)(=O)c1ccccc1CNc1nc(O[C@@H]2CCCNC2)nc2c(C(C)C)cnn12 [(VII-104), (R)-2-(((8-isopropyl-2-(piperidin-3-yloxy)pyrazolo[1,5-a][1,3,5]triazin-4-yl)amino)methyl)-N-methylbenzenesulfonamide]
< 5	–	–	> 2500	–	50 to 500	CC(C)c1cnn2c(NCc3ccccc3-n3cncn3)nc(OC3CCN(C)CC3)nc12 [(VII-74), N-(2-(1H-1,2,4-triazol-1-yl)benzyl)-8-isopropyl-2-((1-methylpiperidin-4-yl)oxy)pyrazolo[1,5-a][1,3,5]triazin-4-amine]
< 5	–	–	> 2500	–	> 2500	CC(C)c1cnn2c(NCc3ccccc3-n3cccn3)nc(OC3COC4(CCNCC4)C3)nc12 (centres unmarked) [(VII-121), 2-(1-oxa-8-azaspiro[4.5]decan-3-yloxy)-N-(2-(1H-pyrazol-1-yl)benzyl)-8-isopropylpyrazolo[1,5-a][1,3,5]triazin-4-amine]
< 5	–	–	50 to 500	–	< 50	CC(C)c1cnn2c(NCc3cc(F)ccc3-n3cccn3)nc(O[C@@H]3CCCNC3)nc12 [(VII-41), (R)-N-(5-fluoro-2-(1H-pyrazol-1-yl)benzyl)-8-isopropyl-2-(piperidin-3-yloxy)pyrazolo[1,5-a][1,3,5]triazin-4-amine]
< 5	–	–	50 to 500	–	50 to 500	CC(C)c1cnn2c(NCc3ccccc3-n3ccnc3)nc(O[C@@H]3CCCNC3)nc12 [(VII-26), (R)-N-(2-(1H-imidazol-1-yl)benzyl)-8-isopropyl-2-(piperidin-3-yloxy)pyrazolo[1,5-a][1,3,5]triazin-4-amine]
